From patent US20160213647A1, “COMPOSITIONS AND METHODS FOR INHIBITING VIRAL INFECTION” (priority 2015, published 2016)
Where two headings read alike, the source gives them in different places.

Columns and labels:
[1] = tested on: HIV-1 MDR 769; assay: microbe, parasite or virus in culture; conditions: Human immunodeficiency virus 1, PBMC
[2] = in vitro; conditions: human
[3] = tested on: Peripheral Blood Mononuclear Cells (PBMCs); conditions: human
[4] = tested on: HIV-1 isolate 4736_4; assay: microbe, parasite or virus in culture; conditions: Human immunodeficiency virus 1, PBMC
[5] = in vitro; conditions: human; remark: listed apart in the source
[6] = tested on: HIV-1 isolate NL4-3; assay: microbe, parasite or virus in culture; conditions: Human immunodeficiency virus 1, NL43, PBMC
[7] = tested on: A/Udorn/72 (H3N2); assay: microbe, parasite or virus in culture; type: cell-based; conditions: Influenza A virus, H3N2, HEK-293T
[8] = tested on: A/Ca/07/09 (H1N1); assay: microbe, parasite or virus in culture; type: cell-based; conditions: Influenza A virus, H1N1, HEK-293T
[9] = in vitro; conditions: human; remark: listed apart in the source
[10] = tested on: HIV-1 isolate MDR807; assay: microbe, parasite or virus in culture; conditions: Human immunodeficiency virus 1, PBMC
[11] = tested on: HIV-2 CDC 310319; assay: microbe, parasite or virus in culture; conditions: Human immunodeficiency virus 2, PBMC
[12] = tested on: HIV-1 isolate 1022-48; assay: microbe, parasite or virus in culture; conditions: Human immunodeficiency virus 1, PBMC
[13] = tested on: HIV-1 92HT599; assay: microbe, parasite or virus in culture; conditions: Human immunodeficiency virus 1, PBMC
[14] = tested on: HIV-2 CBL20 H9; assay: microbe, parasite or virus in culture; conditions: Human immunodeficiency virus 2, PBMC
[15] = tested on: HIV-1 isolate A17; assay: microbe, parasite or virus in culture; conditions: Human immunodeficiency virus 1, PBMC
[16] = tested on: HIV-1 91US001; assay: microbe, parasite or virus in culture; conditions: Human immunodeficiency virus 1, PBMC
[17] = tested on: human PBMCs
[18] = tested on: CHIKV 899 wild-type; assay: Chikungunya virus-induced cell death (CPE, MTS/PMS) assay in Vero A cells; conditions: Chikungunya virus, Vero, read-out: EC50 WT
[19] = tested on: HIV-1 isolate MDR769; assay: microbe, parasite or virus in culture; conditions: Human immunodeficiency virus 1, PBMC
[20] = tested on: HIV-1 isolate NL4-3

`O=C1Nc2ccc(Cl)cc2[C@@](C#CC2CC2)(C(F)(F)F)O1` [Efavirenz] gave an IC50 [1] of 0.66 nM, a CC50 [2] greater than 1000 nM and a CC50 [3] greater than 1000 nM.
`COc1cc2c(cc1Cc1cccc(Cl)c1F)c(=O)c(C(=O)O)cn2[C@H](CO)C(C)C` [Elvitegravir] showed an IC90 [4] of 81.9 nM, an IC90 ([4]; read-out: IC50) of 251 nM and a CC50 [5] greater than 1000 nM. It also gave an IC90 [6] of 0.52 nM and an IC90 ([6]; read-out: IC50) of 1.25 nM.
With `NC(=O)c1ncn([C@@H]2O[C@H](CO)[C@@H](O)[C@H]2O)n1` [Ribavirin, reference compound] the EC50 [7] was 5240 nM, the EC50 [8] was 12800 nM and the CC50 [9] was greater than 100000 nM.
Work on `Cc1cn([C@H]2C[C@H](N=[N+]=[N-])[C@@H](CO)O2)c(=O)[nH]c1=O` [AZT, azidothymidine] yielded an IC90 [10] of 162 nM, an IC90 ([10]; read-out: IC50) greater than 1000 nM and an IC50 [11] of 5.73 nM. It also gave an IC50 [12] greater than 1000 nM, an IC90 [12] greater than 1000 nM and an IC90 [4] of 2.57 nM. It also gave an IC90 ([4]; read-out: IC50) of 20.6 nM, an IC50 [13] of 11.9 nM and an IC50 [14] of less than 0.1 nM. For the same molecule, the CC50 [5] was greater than 1000 nM, the IC90 [15] was 11.6 nM and the IC90 ([15]; read-out: IC50) was 27.4 nM. For the same molecule, the IC90 [6] was 9.96 nM, the IC90 ([6]; read-out: IC50) was 39.6 nM and the CC50 [2] was greater than 1000 nM. The CC50 [3] was greater than 1000 nM and the IC50 [16] was 17.4 nM.
In the case of `CC(C)c1nc(CN(C)C(=O)N[C@H](C(=O)N[C@@H](Cc2ccccc2)C[C@H](O)[C@H](Cc2ccccc2)NC(=O)OCc2cncs2)C(C)C)cs1` [Ritonavir, ritonavir], the IC90 [10] is reported as 1280 nM, the IC90 ([10]; read-out: IC50) is reported as 5940 nM and the IC50 [12] is reported as greater than 10000 nM. The IC90 [12] was greater than 10000 nM, the IC90 [6] was 45.5 nM and the IC90 ([6]; read-out: IC50) was 92.3 nM.
For `Cc1cccc(C)c1OCC(=O)N[C@@H](Cc1ccccc1)[C@@H](O)C[C@H](Cc1ccccc1)NC(=O)[C@H](C(C)C)N1CCCNC1=O` [Lopinavir], the IC50 [1] was 827 nM, the CC50 at 7 days [2] was greater than 1000 nM and the CC50 ([3]; 7 days) was greater than 1000 nM.
In the case of enfuvirtide, the CC50 [17] is reported as greater than 2000 nM.
In the case of `NC(=O)c1nc(F)c[nH]c1=O` [T-705, favipiravir, reference compound], the EC50 [18] is reported as 7400 nM.
`Cc1ccnc2c1NC(=O)c1cccnc1N2C1CC1` [Nevirapine] gave an IC90 [12] of 70.4 nM, an IC90 ([12]; read-out: IC50) of 242 nM and a CC50 [5] greater than 10000 nM. For the same molecule, the IC50 [15] was greater than 10000 nM, the IC90 [15] was greater than 10000 nM and the IC90 [6] was 75.3 nM. For the same molecule, the IC90 ([6]; read-out: IC50) was 227 nM.
With `CC(C)Nc1cccnc1N1CCN(C(=O)c2cc3cc(NS(C)(=O)=O)ccc3[nH]2)CC1` [Delavirdine] the CC50 [5] was greater than 2000 nM, the IC50 [15] was greater than 2000 nM and the IC90 [15] was greater than 2000 nM. It also gave an IC90 [6] of 30.6 nM and an IC90 ([6]; read-out: IC50) of 57.6 nM.
In the case of `Cc1nnc(C(=O)NC(C)(C)c2nc(C(=O)NCc3ccc(F)cc3)c(O)c(=O)n2C)o1` [Raltegravir, raltegravir], the IC90 [10] is reported as 0.46 nM, the IC90 ([10]; read-out: IC50) is reported as 2.16 nM and the IC90 [4] is reported as 74.5 nM. For the same molecule, the IC90 ([4]; read-out: IC50) was greater than 100 nM, the IC90 [19] was 3.64 nM and the IC90 ([19]; read-out: IC50) was 8.95 nM. It also gave a CC50 [5] greater than 100 nM, an IC90 [6] of 1.3 nM and an IC90 ([6]; read-out: IC50) of 5.18 nM.
Work on Enfuvirtide yielded an IC50 [20] of 412 nM and an IC90 [20] of 133 nM.
